Assay results: ChEMBL document CHEMBL5226376, “A Streptomyces Cytochrome P450 Enzyme Catalyzes Regiospecific C2-Guaninylation for the Synthesis of Diverse Guanitrypmycin Analogs” (J Nat Prod, 2023)
Activity calls are given as the source filed them.

How the values were obtained:
Type in all cases: functional, organism-based
Klebsiella pneumoniae = test: Antibacterial activity against Klebsiella pneumoniae DSM26371 assessed as inhibition of bacterial growth incubated for overnight by disk diffusion method
Escherichia coli [1] = test: Antibacterial activity against Escherichia coli DH5alpha assessed as inhibition of bacterial growth incubated for overnight by disk diffusion method
Pseudomonas aeruginosa = test: Antibacterial activity against Pseudomonas aeruginosa ATCC 27853 assessed as inhibition of bacterial growth incubated for overnight by disk diffusion method
Niallia circulans [2] = test: Antibacterial activity against Bacillus circulans NRRLNRS-1108 assessed as inhibition of bacterial growth incubated for overnight by disk diffusion method
Enterococcus faecalis = test: Antibacterial activity against Enterococcus faecalis DSM2570 assessed as inhibition of bacterial growth incubated for overnight by disk diffusion method
Staphylococcus aureus = test: Antibacterial activity against Staphylococcus aureus ATCC 29213 assessed as inhibition of bacterial growth incubated for overnight by disk diffusion method
Escherichia coli [3] = test: Antibacterial activity against Escherichia coli ATCC 25922 assessed as inhibition of bacterial growth incubated for overnight by disk diffusion method
Bacillus subtilis [4] = test: Antibacterial activity against Bacillus subtilis BSB01 assessed as inhibition of bacterial growth incubated for overnight by disk diffusion method
Niallia circulans [5] = test: Antibacterial activity against Bacillus circulans NRRLB-14032 assessed as inhibition of bacterial growth incubated for overnight by disk diffusion method
Niallia circulans [6] = test: Antibacterial activity against Bacillus circulans NRRLB-380 assessed as inhibition of bacterial growth incubated for overnight by disk diffusion method
Bacillus subtilis [7] = test: Antibacterial activity against Bacillus subtilis NCIB3610 assessed as inhibition of bacterial growth incubated for overnight by disk diffusion method
Staphylococcus delphini = test: Antibacterial activity against Staphylococcus delphini DSM20771 assessed as inhibition of bacterial growth incubated for overnight by disk diffusion method

Measured: Activity

Nc1nc2[nH]c(-c3[nH]c4ccccc4c3C[C@@H]3NC(=O)[C@H](Cc4ccccc4)NC3=O)nc2c(=O)[nH]1
inactive: Klebsiella pneumoniae | Escherichia coli [1] | Pseudomonas aeruginosa | Niallia circulans [2] | Enterococcus faecalis | Staphylococcus aureus | Escherichia coli [3] | Bacillus subtilis [4] | Niallia circulans [5] | Niallia circulans [6] | Bacillus subtilis [7] | Staphylococcus delphini

Nc1nc2[nH]c(-c3[nH]c4ccccc4c3C[C@@H]3NC(=O)[C@H](Cc4ccc(O)cc4)NC3=O)nc2c(=O)[nH]1
inactive: Klebsiella pneumoniae | Escherichia coli [1] | Pseudomonas aeruginosa | Niallia circulans [2] | Enterococcus faecalis | Staphylococcus aureus | Escherichia coli [3] | Bacillus subtilis [4] | Niallia circulans [5] | Niallia circulans [6] | Bacillus subtilis [7] | Staphylococcus delphini

Nc1nc2[nH]c(-c3[nH]c4ccccc4c3C[C@@H]3NC(=O)/C(=C/c4ccccc4)NC3=O)nc2c(=O)[nH]1
inactive: Klebsiella pneumoniae | Escherichia coli [1] | Pseudomonas aeruginosa | Niallia circulans [2] | Enterococcus faecalis | Staphylococcus aureus | Escherichia coli [3] | Bacillus subtilis [4] | Niallia circulans [5] | Niallia circulans [6] | Bacillus subtilis [7] | Staphylococcus delphini

Nc1nc2[nH]c(-c3[nH]c4ccccc4c3C[C@@H]3NC(=O)/C(=C/c4ccc(O)cc4)NC3=O)nc2c(=O)[nH]1
inactive: Klebsiella pneumoniae | Escherichia coli [1] | Pseudomonas aeruginosa | Niallia circulans [2] | Enterococcus faecalis | Staphylococcus aureus | Escherichia coli [3] | Bacillus subtilis [4] | Niallia circulans [5] | Niallia circulans [6] | Bacillus subtilis [7] | Staphylococcus delphini

Nc1nc2[nH]c(-c3[nH]c4ccccc4c3C[C@@H]3NC(=O)[C@H](Cc4c[nH]c5ccccc45)NC3=O)nc2c(=O)[nH]1
inactive: Klebsiella pneumoniae | Escherichia coli [1] | Pseudomonas aeruginosa | Niallia circulans [2] | Enterococcus faecalis | Staphylococcus aureus | Escherichia coli [3] | Bacillus subtilis [4] | Niallia circulans [5] | Niallia circulans [6] | Bacillus subtilis [7] | Staphylococcus delphini
